Results reported in patent USRE44987E1, “Bromo-phenyl substituted thiazolyl dihydropyrimidines” (Sunshine Lake Pharma Co., Ltd., priority 2007, dated 2014).
Read-outs that look alike come from different tables or passages of the source.

Assays:
hepatitis B virus [1] = assay: Antiviral action on hepatitis B virus in HepG2.2.15 cells (HBV DNA dot-blot hybridization); assay type: cell-based; conditions: 50% reduction of intra- or extracellular hepatitis B-specific band
Description: The antiviral action of the compounds of the invention on hepatitis B virus is investigated by methods based on those described by M. A. Sells et al., Proc. Natl. Acad. Sci., 84, 1005-1009 (1987) and B. E. Korba et al., Antiviral Research 19, 55-70 (1992).
The antiviral tests are carried out in 96-well microtiter plates. The first vertical row of the plate receives only growth medium and HepG2.2.15 cells. It serves as virus control.
Stock solutions of the test compounds (50 mM) are initially dissolved in DMSO, and further dilutions are prepared in the HepG2.2.15 growth medium. The compounds according to the invention are usually pipetted in a test concentration of 100 μM (1st test concentration) in each case into the second vertical test row of the microtiter plate and subsequently diluted in twofold steps […] in growth medium plus 2% by weight of fetal calf serum (volume 25 μl)
Each well of the microtiter plate then contains 225 μl of HepG2.2.15 cell suspension (5×10^4 cells/ml) in growth medium plus 2% by weight of fetal calf serum. The test mixture is incubated at 37° C. and 5% CO2 (v/v) for 4 days.
The supernatant is then aspirated off and discarded, and the wells receive 225 μl of freshly prepared growth medium. The compounds according to the invention are each added anew as 10-fold concentrated solution in a volume of 25 μl. The mixtures are incubated for a further 4 days
The supernatant and/or cells are then harvested and sucked by means of a vacuum onto 96-well dot-blot chambers covered with a nylon membrane (in accordance with the manufacturer's information).
After the supernatants or lysed cells is transferred to the nylon membrane of the blot apparatus (see above), the intra- or extracellular supernatants of the HepG2.2.15 cells are denatured (1.5 M NaCl/0.5 N NaOH), neutralized (3 M NaCl/0.5M Tris HCl, pH 7.5) and washed (2×SSC). The DNA is then baked onto the membrane by incubating the filters at 120° C. for 2-4 hours.
Detection of the viral DNA from the treated HepG2.2.15 cells on the nylon filters is usually carried out with nonradioactive, digoxigenin-labeled hepatitis B-specific DNA probes, each of which is labeled with digoxigenin, purified and employed for the hybridization in accordance with the manufacturer's information.
The prehybridization and hybridization take place in 5×SSC, 1×blocking reagent, 0.1% by weight N-lauroylsarcosine, 0.02% by weight SDS and 100 μg of herring sperm DNA. The prehybridization takes place at 60° C. for 30 minutes, and the specific hybridization takes place with 20 to 40 ng/ml of the digoxigenized, denatured HBV-specific DNA (14 hours, 60° C.). The filters are then washed.
The immunological detection of the digoxigenin-labeled DNA took place in accordance with the manufacturer's information: […]

hepatitis B virus [2] = conditions: examples of U.S. Pat. No. 7,074,784, values as described in that patent; cited from earlier work
[3] = Hepatitis B virus, HepG2.2.15, HepG2.2.15 cells

Row | Structure (SMILES) | IC50 (hepatitis B virus [1]; HepG2.2.15 cells) [nM] | IC50 (hepatitis B virus [2]) [nM] | IC50 (hepatitis B virus [1]; [3]) [nM]
1 | CCOC(=O)C1=C(CN2CCOCC2)NC(c2nccs2)=NC1c1ccc(F)cc1Br (single isomer, unassigned; (-)) [(−)-5] | 0.1 | – | –
2 | COC(=O)C1=C(CN2CCOCC2)NC(c2nccs2)=NC1c1ccc(F)cc1Br (single isomer, unassigned; (-)) [(−)-6] | 0.2 | – | –
3 | CCOC(=O)C1=C(CN2CCOCC2)NC(c2nccs2)=NC1c1ccc(F)cc1Br (centres unmarked) [Example 5, Ethyl 4-(2-bromo-4-fluorophenyl)-2-(thiazol-2-yl)-6-(4-morpholinylmethy)-1,4-dihydropyrimidine-5-carboxylic ester] | – | 2 to 4 | 0.2
4 | COC(=O)C1=C(CN2CCOCC2)NC(c2nccs2)=NC1c1ccc(F)cc1Br (centres unmarked) [Example 6, Methyl 4-(2-bromo-4-fluorophenyl)-2-(thiazol-2-yl)-6-(4-morpholinylmethy)-1,4-dihydropyrimidine-5-carboxylic ester] | – | – | 0.3
